Broadly, the IC50 is the concentration needed to halve the response being measured.

This is an account of results in patent US8987195B2 (priority 2012, dated 2015).

In this test the target is HCV NS3/4A protease genotype 1b (Hepatitis C virus genotype 1b, UniProt P26663). As to the kind of experiment: HCV NS3/4A protease time-resolved fluorescence (TRF) assay, Ki against genotype 1b. The format is biochemical. The method, then:
Measuring NS3/4A Inhibitory Activity (Ki) Against Genotype 1b, Against A156T Mutants and Against Genotype 3a
One assay for measuring inhibitory activity is HCV NS3 protease time-resolved fluorescence (TRF) assay as described below and in Mao et al., Anal. Biochem. 373:1-8, 2008 and International Patent Application Publication WO 2006/102087. A NS3 protease assay can be performed, for example, in a final volume of 20 μl assay buffer containing 50 mM HEPES, pH 7.5, 150 mM NaCl, 15% glycerol, 0.15% TRITON X-100, 10 mM DTT, and 0.1% PEG 8000. NS3 and NS4A protease is pre-incubated with various concentrations of inhibitors in DMSO for 30 min. The reaction is initiated by adding the TRF peptide substrate (final concentration 25 nM). NS3 mediated hydrolysis of the substrate was run for 2.5 hours at room temperature. Product fluorescence is detected using A Pherastar Plus plate reader (BMG) or Envision (Perkin Elmer Life and Analytical Sciences with excitation at 340 nm and emission at 615 nm using the appropriate delay time optimized for the europium fluorescence probe. Testing concentrations of different enzyme forms are selected to result in a signal to background ratio (S/B) of 10-30. IC50 values are derived using a standard four-parameter fit to the data. Ki values are derived from IC50 values using the following formula, IC50=Ki(1+[S]/KM), Eqn (1), where [S] is the concentration of substrate peptide in the reaction and KM is the Michaelis constant. See P. Gallinari et al., 38 BIOCHEM. 5620-32 (1999); P. Gallinari et al., 72 J. VIROL. 6758-69 (1998); M. Taliani et al., 240 ANAL. BIOCHEM. 60-67 (1996); Mao et al., Analytical Biochemistry 373: 1-8, 2008.
The assay described above was run against genotype 1b at a concentration of 0.2 nM, against A156T mutant strains at a concentration of 0.4 nM, and against genotype 3a at a concentration of 0.025 nM.

The mark [1] stands for this setting: IC50 [gt-1b] (nM), NS3/4A genotype 1b, enzyme 0.2 nM, K+ salt.
[2] abbreviates: IC50 [gt-1b] (nM), NS3/4A genotype 1b, enzyme 0.2 nM.
[3] abbreviates: IC50 [gt-1b], NS3/4A protease TRF assay, genotype 1b enzyme 0.2 nM.
[4] abbreviates: IC50 [gt-1b], NS3/4A protease TRF assay, genotype 1b enzyme 0.2 nM, K+ salt.

For `Cc1nc2cc(F)c(F)cc2c2c1O[C@]1(CC2)C[C@H]2C(=O)N[C@]3(C(=O)NS(=O)(=O)C4(C)CC4)C[C@H]3/C=C\CCCCC[C@H](NC(=O)OC3CCC3)C(=O)N2C1` [Example 204, cyclobutyl [(2R,6S,12Z,13aS,14aR,16aS)-8′,9′-difluoro-5′-methyl-14a-{[(1-methylcyclopropyl)sulfonyl]carbamoyl}-5,16-dioxo-1,1′,2′,5,6,7,8,9,10,11,13a,14,14a,15,16,16a-hexadecahydrospiro[cyclopropa[e]pyrrolo[1,2-a][1,4]diazacyclopentadecine-2,3′-pyrano[2,3-c]quinolin]-6-yl]carbamate], the 50% inhibitory concentration (IC50) under setting [1] amounted to 0.015 nM.
As for `Cc1nc2ccccc2c2c1O[C@]1(CC2)C[C@H]2C(=O)N[C@]3(C(=O)NS(=O)(=O)C4(C)CC4)C[C@H]3/C=C\CCCCC[C@H](NC(=O)OC3CCN(C)CC3)C(=O)N2C1` [Example 117, 1-methylpiperidin-4-yl [(2R,6S,12Z,13aS,14aR,16aS)-5′-methyl-14a-{[(1-methylcyclopropyl)sulfonyl]carbamoyl}-5,16-dioxo-1,1′,2′,5,6,7,8,9,10,11,13a,14,14a,15,16,16a-hexadecahydrospiro[cyclopropa[e]pyrrolo[1,2-a][1,4]diazacyclopentadecine-2,3′-pyrano[2,3-c]quinolin]-6-yl]carbamate], under setting [2], the half-maximal inhibitory concentration (IC50) was 0.056 nM.
Turning to `COc1cc(Cl)c2nc(C(F)(F)F)c3c(c2c1)CC[C@]1(C[C@H]2C(=O)N[C@]4(C(=O)NS(=O)(=O)C5(C)CC5)C[C@H]4/C=C\CCCCC[C@H](NC(=O)OC(C)(C)C(F)(F)F)C(=O)N2C1)O3` [Example 400, 1,1,1-trifluoro-2-methylpropan-2-yl [(2R,6S,12Z,13aS,14aR,16aS)-7′-chloro-9′-methoxy-14a-{[(1-methylcyclopropyl)sulfonyl]carbamoyl}-5,16-dioxo-5′-(trifluoromethyl)-1,1′,2′,5,6,7,8,9,10,11,13a,14,14a,15,16,16a-hexadecahydrospiro[cyclopropa[e]pyrrolo[1,2-a][1,4]diazacyclopentadecine-2,3′-pyrano[2,3-c]quinolin]-6-yl]carbamate], inhibition under setting [3] was half-maximal at 0.052 nM (IC50).
For `COc1ccc2nc(C)c3c(c2c1)CC[C@]1(C[C@H]2C(=O)N[C@]4(C(=O)NS(=O)(=O)C5(C)CC5)C[C@H]4/C=C\CCCCC[C@H](NC(=O)OCC4CCC4)C(=O)N2C1)O3` [Example 213, cyclobutylmethyl [(2R,6S,12Z,13aS,14aR,16aS)-9′-methoxy-5′-methyl-14a-{[(1-methylcyclopropyl)sulfonyl]carbamoyl}-5,16-dioxo-1,1′,2′,5,6,7,8,9,10,11,13a,14,14a,15,16,16a-hexadecahydrospiro[cyclopropa[e]pyrrolo[1,2-a][1,4]diazacyclopentadecine-2,3′-pyrano[2,3-c]quinolin]-6-yl]carbamate], under setting [1], the IC50 was 0.004 nM.
Under setting [3], `Cc1nc2ccccc2c2c1O[C@]1(CC2)C[C@H]2C(=O)N[C@]3(C(=O)NS(=O)(=O)C4(C)CC4)C[C@H]3/C=C\CCCCC[C@H](Nc3nc(C4CC4)no3)C(=O)N2C1` [Example 394, (2R,6S,12Z,13aS,14aR,16aS)-6-[(3-cyclopropyl-1,2,4-oxadiazol-5-yl)amino]-5′-methyl-N-[(1-methylcyclopropyl)sulfonyl]-5,16-dioxo-1,1′,2′,6,7,8,9,10,11,13a,14,15,16,16a-tetradecahydrospiro[cyclopropa[e]pyrrolo[1,2-a][1,4]diazacyclopentadecine-2,3′-pyrano[2,3-c]quinoline]-14a(5H)-carboxamide] registered a concentration for half-maximal inhibition (IC50) of 0.057 nM.
Regarding `CCc1nc2ccc(OCCN3CCOCC3)cc2c2c1O[C@]1(CC2)C[C@H]2C(=O)N[C@]3(C(=O)NS(=O)(=O)C4(C)CC4)C[C@H]3/C=C\CCCCC[C@H](NC(=O)OC3(C)CCC3)C(=O)N2C1` [Example 509, 1-methylcyclobutyl {(2R,6S,12Z,13aS,14aR,16aS)-5′-ethyl-14a-{[(1-methylcyclopropyl)sulfonyl]carbamoyl}-9′-[2-(morpholin-4-yl)ethoxy]-5,16-dioxo-1,1′,2′,5,6,7,8,9,10,11,13a,14,14a,15,16,16a-hexadecahydrospiro[cyclopropa[e]pyrrolo[1,2-a][1,4]diazacyclopentadecine-2,3′-pyrano[2,3-c]quinolin]-6-yl}carbamate], under setting [4], the IC50 is 0.006 nM.
Regarding `Cc1ccc2nc(C(F)(F)F)c3c(c2c1)CC[C@]1(C[C@H]2C(=O)N[C@]4(C(=O)NS(=O)(=O)C5(C)CC5)C[C@H]4/C=C\CCCCC[C@H](NC(=O)O[C@H](C)C(C)C)C(=O)N2C1)O3` [Example 395, (2R)-3-methylbutan-2-yl [(2R,6S,12Z,13aS,14aR,16aS)-9′-methyl-14a-{[(1-methylcyclopropyl)sulfonyl]carbamoyl}-5,16-dioxo-5′-(trifluoromethyl)-1,1′,2′,5,6,7,8,9,10,11,13a,14,14a,15,16,16a-hexadecahydrospiro[cyclopropa[e]pyrrolo[1,2-a][1,4]diazacyclopentadecine-2,3′-pyrano[2,3-c]quinolin]-6-yl]carbamate], under setting [3], inhibition was half-maximal at 0.014 nM (IC50).
As to `COc1ccc2nc(C)c3c(c2c1)CC[C@]1(C[C@H]2C(=O)N[C@]4(C(=O)NS(=O)(=O)C5(C)CC5)C[C@H]4/C=C\CCCCC[C@H](NC(=O)O[C@@H](C)C(C)C)C(=O)N2C1)O3` [Example 215, (2S)-3-methylbutan-2-yl [(2R,6S,12Z,13aS,14aR,16aS)-9′-methoxy-5′-methyl-14a-{[(1-methylcyclopropyl)sulfonyl]carbamoyl}-5,16-dioxo-1,1′,2′,5,6,7,8,9,10,11,13a,14,14a,15,16,16a-hexadecahydrospiro[cyclopropa[e]pyrrolo[1,2-a][1,4]diazacyclopentadecine-2,3′-pyrano[2,3-c]quinolin]-6-yl]carbamate], the 50% inhibitory concentration (IC50) under setting [1] is 0.005 nM.
Regarding `Cc1nc2ccc(OC(F)(F)F)cc2c2c1O[C@@]1(C[C@H]3C(=O)N[C@]4(C(=O)NS(=O)(=O)C5(C)CC5)C[C@H]4/C=C\CCCCC[C@H](NC(=O)OC(C)(C)C)C(=O)N3C1)CC2(F)F` [Example 220, tert-butyl [(2S,6S,12Z,13aS,14aR,16aS)-1′,1′-difluoro-5′-methyl-14a-{[(1-methylcyclopropyl)sulfonyl]carbamoyl}-5,16-dioxo-9′-(trifluoromethoxy)-1,1′,2′,5,6,7,8,9,10,11,13a,14,14a,15,16,16a-hexadecahydrospiro[cyclopropa[e]pyrrolo[1,2-a][1,4]diazacyclopentadecine-2,3′-pyrano[2,3-c]quinolin]-6-yl]carbamate], under setting [2], half-maximal inhibition (IC50) required 0.033 nM.
In the case of `COCCCOc1ccc2nc(C(F)(F)F)c3c(c2c1)CC[C@]1(C[C@H]2C(=O)N[C@]4(C(=O)NS(=O)(=O)C5(C)CC5)C[C@H]4/C=C\CCCCC[C@H](NC(=O)OC4(C)CCC4)C(=O)N2C1)O3` [Example 523, 1-methylcyclobutyl [(2R,6S,12Z,13aS,14aR,16aS)-9′-(3-methoxypropoxy)-14a-{[(1-methylcyclopropyl)sulfonyl]carbamoyl}-5,16-dioxo-5′-(trifluoromethyl)-1,1′,2′,5,6,7,8,9,10,11,13a,14,14a,15,16,16a-hexadecahydrospiro[cyclopropa[e]pyrrolo[1,2-a][1,4]diazacyclopentadecine-2,3′-pyrano[2,3-c]quinolin]-6-yl]carbamate], the half-inhibitory concentration (IC50) under setting [4] came to 0.009 nM.
